Measured values published in the METLIN SMRT retention time set (Domingo-Almenara et al. 2019).

Assay: gradient 5% acetonitrile 3 min, to 50% in 2 min, to 85% in 15 min, held 3 min, 100 µL/min
Conditions: column: Zorbax Extend-C18 2.1 x 50 mm; eluents: water / acetonitrile, 0.1% formic acid
How it was run: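 Pure standards were run in mixtures of ~100 molecules by HPLC coupled to a quadrupole time-of-flight mass spectrometer. The column was a Zorbax Extend-C18 (2.1 × 50 mm, 1.8 μm) at 100 μL/min, with water and acetonitrile each containing 0.1% formic acid, in positive and negative ionization mode. Dead and dwell volumes were 40 μL and 900 μL. Retention time was taken from computationally picked adduct peaks, each manually inspected, with data collected over 3 months.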

| RP-LC retention time [s] | SMILES |
| --- | --- |
| 1000 | CCSc1nc(-c2ccccc2)c(NC(=O)c2ccc(S(=O)(=O)N(C)C)cc2)s1 |
| 559 | CCN1C(=O)C(CC(=O)NCCCN(C)C)Sc2ncccc21 (centres undefined) |
| 578 | CCN(CC)CCNC(=O)CCC(=O)N1CCc2c(c(C(=O)N3CCCC3)nn2C)C1 |
| 1240 | CCOc1ccc(S(=O)(=O)N2CCC(c3noc(-c4ccc(C)cc4)n3)CC2)cc1 |
| 749 | CCCn1nc2n(c1=O)CCN(Cc1ccc(C)c(C)c1)C2 |
| 723 | CCNC(=O)c1csc(N2CCCC2)n1 |
| 969 | Cc1cc(C)cc(NC(=O)Cc2ccc(OC(C)(C)C(=O)O)cc2)c1 |
| 795 | CCCCCn1c(=O)c2ccccc2n(Cc2nc(-c3ccc(C)c(C)c3)no2)c1=O |
| 1010 | CC(C)Oc1ccc(CNS(=O)(=O)c2cc3c(s2)CCN(C(=O)C2CCC2)C3)cc1 |
| 806 | CCCNC(=O)NCc1nc(-c2ccc(Cl)cc2)no1 |
| 709 | Cn1cnc(S(=O)(=O)N2CCC(C(=O)Nc3ccc(F)c(F)c3)CC2)c1 |
| 904 | Cc1ccc(CC(=O)NC2CCN(c3ccc(C)c(C)c3)C2=O)cc1 (centres undefined) |
| 851 | O=C(CSc1cnc2ccccc2n1)N1CCN(c2ccc(F)cc2)CC1 |
| 642 | COc1ccc(OC)c(S(=O)(=O)Nc2ccc(-c3cn4ccc(C)nc4n3)cc2)c1 |
| 650 | CCOC(=O)c1ccc(NC(=O)CN2CC(c3nc(-c4cccc(Cl)c4)no3)C2)cc1 |
| 774 | Cc1ccc(C)c(S(=O)(=O)N2CCC3(CC2)NCCN=C3NCc2cc(F)cc(F)c2)c1 |
| 819 | O=C(NCCCn1cccn1)C1CN(S(=O)(=O)c2ccccc2)CC12CCCCC2 (centres undefined) |
| 805 | CN1C(=O)c2cc(C(=O)NCc3ccc(Cl)cc3)nn2CC1(C)C(=O)NCc1ccc(F)cc1 (centres undefined) |
| 879 | Cc1cc(Cl)ccc1NC(=O)c1ncn2c1C(=O)N(C1CC1)C(C)(C(=O)NC1CCCC1)C2 (centres undefined) |
| 797 | CC(C)c1ccc(NC(=O)C(=O)NCC2(CO)CC2)cc1 |
| 787 | CC(=O)N1CCc2cc(S(=O)(=O)C(C)CC(=O)N3CCN(c4ccccc4)CC3)ccc21 (centres undefined) |
| 1070 | CCSc1nc2ccc(NS(=O)(=O)c3cccc(Cl)c3)cc2s1 |

| RP-LC retention time [s] | SMILES |
| --- | --- |
| 655 | Cn1cc(CN2CCN(C(=O)C3CCN(S(=O)(=O)N4CCCC4)CC3)CC2)c2ccccc21 |
| 616 | Cc1nnc2c(=O)n(CC(=O)N3CCCCC3)c3cccnc3n12 |
| 973 | Cc1ccc(C(=O)Nc2nc(-c3ccccc3)cs2)o1 |
| 902 | O=C(CCC1CCCN(S(=O)(=O)c2ccccc2)C1)N1CCCCC1 (centres undefined) |
| 759 | O=C(Nc1ccc2c(c1)OCO2)C1CCCN(c2ncnc3c2nc2n3CCCCC2)C1 (centres undefined) |
| 640 | O=C(CCc1ccccc1)NCC(=O)Nc1nc2ccccc2[nH]1 |
| 828 | CC(Cc1ccco1)NC(=O)c1cc2n(n1)CCCN(Cc1ccccc1)C2=O (centres undefined) |
| 801 | Fc1ccc(F)c(-c2nc(-c3ccc4nncn4c3)no2)c1 |
| 782 | CCOc1cccc(CNC(=O)C2CCCN(c3ncnc4c3oc3ccccc34)C2)c1 (centres undefined) |
| 793 | Cn1c(=O)c(=O)n(C)c2cc(N3CCCC3)c(NC(=O)Cc3ccccc3Cl)cc21 |
| 983 | CCCCS(=O)(=O)N1CCc2nc(-c3ccc(OC)cc3)ncc2C1 |
| 686 | CCCCNC(=O)C1CCCN(c2nnc(C)c3c(C)n(-c4ccccc4)nc23)C1 (centres undefined) |
| 716 | Cc1cc(=O)n(CC(=O)Nc2ccc(Br)cc2)c(N2CCCCC2)n1 |
| 947 | COc1cc(N2CCN(S(=O)(=O)c3cccc(C(F)(F)F)c3)CC2)nc(OC)n1 |
| 610 | CCc1cc(=O)n(CC(=O)NCc2ccc(C)cc2)c(N)n1 |
| 1050 | COc1ccc(N2C(=O)C3N=NN(Cc4nc(-c5ccc(C)c(C)c5)no4)C3C2=O)cc1 (centres undefined) |
| 797 | Cn1c(C2CCN(C(=O)c3cc4c(s3)CCCC4)C2)nc2cccnc21 (centres undefined) |
| 919 | COc1cccc(CNC(=O)C2(C)CCCN(C(=O)Nc3ccccc3Cl)C2)c1 (centres undefined) |
| 756 | CSc1ccccc1NC(=O)c1cc2nc(C)ccc2o1 |
| 700 | Cc1cccn2cc(-c3cccc(S(=O)(=O)N4CCCCC4)c3)nc12 |
| 845 | CCOC(=O)N1CCC2(CC1)OC(=O)C(C)=C2C(=O)Nc1cccc(OC)c1 |
| 631 | Cc1ccsc1C(=O)N1CCN(C(=O)c2cc(-c3ccccn3)n[nH]2)CC1 |

| RP-LC retention time [s] | SMILES |
| --- | --- |
| 968 | CCOc1ccc(CC(=O)N2CCCn3nc(-c4cccc(C)c4)cc3C2)cc1 |
| 644 | O=C(Cn1cnc2nc(N3CCCC(C(=O)NC4CC4)C3)sc2c1=O)NCc1cccs1 (centres undefined) |
| 902 | Cc1nc(-c2csc(S(=O)(=O)N3CCCC(C(=O)N4CCCCCC4)C3)c2)no1 (centres undefined) |
| 786 | O=C(CCc1nnc2c3cc(-c4ccc(F)cc4)nn3ccn12)NCCc1cccs1 |
| 811 | O=C(c1ccc2nsnc2c1)N1CCN(c2ccc(F)cc2)CC1 |
| 808 | O=C(Cn1c(=O)c2cc(C3CC3)nn2c2ncccc21)N1CCc2ccccc21 |
| 822 | CCOc1nc2c(c(C)nn2-c2ccccc2)c(C)c1CCC(=O)N1CCN(c2ccccn2)CC1 |
| 604 | CN1CCC[C@@H]1Cc1c[nH]c2ccc(CCS(=O)(=O)c3ccccc3)cc12 |
| 949 | CCOc1ccc(-n2nnnc2CNS(=O)(=O)c2ccc(CC)s2)cc1 |
| 792 | Cc1noc(C2CN(C(=O)Nc3cccc(Cl)c3C)CC23CCOCC3)n1 (centres undefined) |
| 713 | CCn1cc(-c2ccc(Cl)cc2)cc1C(=O)N1CCC(N2CCCCC2)CC1 |
| 970 | COc1cc(NC(=O)Nc2nccn(-c3ccc(Cl)cc3)c2=O)cc(OC)c1 |
| 1130 | O=S(=O)(c1ccccc1Br)N1CCc2nc(-c3ccc(F)cc3)ncc2C1 |
| 986 | Cc1ccsc1C(=O)Nc1cccn2nc(C(C)C)nc12 |
| 872 | O=C(NCc1ccc2c(c1)OCO2)C1CCCN(c2nccn3nc(-c4ccc(F)cc4)cc23)C1 (centres undefined) |
| 916 | CC(C)Cn1cc(S(=O)(=O)Nc2cccc(C#N)c2)c2cccnc21 |
| 701 | CC(=O)Nc1ccc(-n2cnc(C(=O)NC(C)c3ccc(F)cc3)c2)nc1 (centres undefined) |
| 876 | CCOC(=O)c1ccc2nc(C(F)(F)F)nc(NCCCN3CCCC3=O)c2c1 |
| 832 | O=C(Cn1cccc1-c1nnc(C2CCC2)o1)NCc1ccc(F)cc1 |
| 758 | CCCN1C(=O)Cc2ccccc2C1C(=O)NCc1cccs1 (centres undefined) |
| 765 | COc1ccc(-c2nc(Cn3cnc4ccccc4c3=O)no2)cc1OC |
| 891 | CC[C@H](C)C(=O)O[C@H]1C[C@H](O)C=C2C=C[C@H](C)[C@H](CC[C@@H]3C[C@@H](O)CC(=O)O3)[C@H]21 |

| RP-LC retention time [s] | SMILES |
| --- | --- |
| 727 | O=C(NCCS(=O)(=O)N1CCN(c2ncccn2)CC1)c1cc2ccccc2o1 |
| 573 | Cc1ccc(C(=O)N2CCC(n3cnnc3-c3ccccc3)C2)cn1 (centres undefined) |
| 841 | Cn1ncc2c(N3CCSCC3)nc(C(=O)N3CCN(c4ccc(F)cc4)CC3)nc21 |
| 1100 | Cc1ccc(OCC(=O)Nc2nnc(SCc3nnc(-c4ccccc4C)o3)s2)c(C)c1 |
| 809 | O=C(CC(c1ccccc1)c1ccccc1)NCC(O)c1cccs1 (centres undefined) |
| 594 | COc1ccc(-c2nnc(N3CCC(C(=O)NCCN(C)C)CC3)o2)cc1 |
| 640 | CC1CCCCC12NCCN=C2NCc1cccc(F)c1 (centres undefined) |
| 902 | CCOC(=O)c1[nH]c(C)c(CN(Cc2ccco2)C(=O)c2ccco2)c1C |
| 867 | CCCn1cc(C(=O)Nc2ccc(S(N)(=O)=O)cc2)c(=O)c2ccc(C)nc21 |
| 1080 | COc1ccccc1-c1nc(Cc2noc(-c3cccc(F)c3)n2)c(C)o1 |
| 864 | CCN1C(=O)c2ccccc2Oc2ccc(C(=O)NCCc3ccc(OC)c(OC)c3)cc21 |
| 745 | CCC(C)(C)NC(=O)C1CCN(S(=O)(=O)c2ccc3c(c2)NC(=O)CO3)CC1 |
| 908 | CCC(=O)N(C1CCOCC1)C1CCN(S(=O)(=O)c2ccccc2CC)CC1 |
| 665 | CCC(=O)N1CCc2cc(CNC(=O)c3ccnn3C)ccc21 |
| 616 | CN(C)C(=O)c1ccc2c(c1)nc(CN(C)C(=O)Nc1ccc(Cl)cc1)n2C |
| 572 | CCNc1cc(N2CCC(CCC(=O)NCCN3CCc4ccccc4C3)CC2)ncn1 |
| 592 | O=C(NCC1(N2CCOCC2)CCOC1)Nc1cc(F)ccc1F (centres undefined) |
| 940 | Cc1ccc(CNC(=O)Cn2cccc2-c2nnc(-c3ccccc3)o2)cc1 |
| 606 | c1ccc2c(c1)nnn1c3cnccc3nc21 |
| 643 | COc1cc2c(cc1CNC(=O)Cn1c(C)nc3cc4c(cc31)OCCO4)OCCCO2 |
| 572 | COC1CN(C2CCN(C(=O)c3cccs3)CC2)C12CCOCC2 (centres undefined) |

| SMILES | RP-LC retention time [s] |
| --- | --- |
| COc1ccc2c(c1)C1(CCN(C(=O)CC(C)(C)C)C1)C(=O)N2C (centres undefined) | 782 |
| COc1ccc(C2(C(=O)N3CCC4(CC3)N(C)C(=O)CS4=O)CC2)cc1 (centres undefined) | 636 |
